According to patent US20230250428A1, “Method and composition for early detection of malignancies” (Alliance of Cardiovascular Researchers, priority 2022, published 2023):

What was measured:
4IC tumors = experiment: Effect of targeting TRAF3IP2 on chemoresistance in vivo (4IC tumors, Paclitaxel combination); set-up: species or system mice; conditions: vs SCR-AO group
Procedure: FIG. 16. Effect of targeting TRAF3IP2 on chemoresistance in vivo. Tumors were induced using 4IC cells (n=6 animals/group), and mice were treated with one of the following: SCR-AO, SCR-AO+Paclitaxel, TRAF3IP2-AO, or TRAF3IP2-AO+Paclitaxel. Animals in the 4IC SCR-AO group were euthanized by day 28 due to increased tumor […]. Paclitaxel reduced tumor volume by 42% and TRAF3IP2 targeting reduced tumor size by 78%.
At first, we induced tumors using wild type 4IC cells and a similar set up described in FIG. 12. After tumor induction, each group was treated with one of the following: SCR-AO, SCR-AO and Paclitaxel, TRAF3IP2-AO, or TRAF3IP2-AO and Paclitaxel. Animals in the SCR-AO group had to be euthanized by day 28 due to increased tumor burden. Paclitaxel reduced tumor volume by 42% and TRAF3IP2 targeting reduced tumor size by 78%.

4IC cells = experiment: Cell cycle profile of 4IC TNBC cells with TRAF3IP2 knockdown and/or Paclitaxel; format: cell-based, human; conditions: 4IC cells in vitro, vs 4ICControl shRNA
Description: FIG. 7. […] Cell cycle profiles of 4ICControl shRNA, 4ICControl shRNA+Paclitaxel, 4ICTRAF3IP2 KD and 4ICTRAF3IP2 KD+Paclitaxel (A-D).
Paclitaxel has been previously shown to arrest cell cycle progression at the G2/M phase, resulting in apoptosis.

Structure (SMILES): CC(=O)O[C@H]1C(=O)[C@@]2(C)[C@H]([C@H](OC(=O)c3ccccc3)[C@]3(O)C[C@H](OC(=O)[C@H](O)[C@@H](NC(=O)c4ccccc4)c4ccccc4)C(C)=C1C3(C)C)[C@]1(OC(C)=O)CO[C@@H]1C[C@@H]2O [Paclitaxel]
- reduction of tumor volume (4IC tumors): 42%
- increase in the proportion of cells in G2 (4IC cells): 23%
